Assay results published in paper PMC11501026, “L-Arginine and asymmetric dimethylarginine (ADMA) transport across the mouse blood-brain and blood-CSF barriers: Evidence of saturable transport at both interfaces and CNS to blood efflux” (PLOS ONE, 2024).
“And” between values parts separate entries of the source, which are not always exact repeats. Equal values may be shown once. Read-outs that look alike come from different tables or passages of the source. Blank lines part the entries; values can stand above or below the molecule they belong to.

Assays:
[1] = system: [^3H]-arginine transport across the blood-brain and blood-CSF barriers; assay: self-inhibition, in situ perfusion: [^3H]-arginine with 100 μM unlabelled L-arginine; format: in vivo, mouse
Method: (§1) Self-inhibition experiments were also performed. […] Cross-competition experiments were also performed.
(§2) The percentage change in the RTissue uptake values achieved in the absence or presence of an unlabelled inhibitor can be calculated by means of Eq 4.
(§3) %change=RTissue−RInhibition/RTissue×100 Eq 4
(§4) We define RInhibition as the RTissue uptake in the presence of an inhibitor in the artificial plasma.
(§5) A decrease in the uptake of radiolabelled solute in the presence of unlabelled inhibitor is indicative of a saturable influx transport system. Conversely, an increase in the uptake of radiolabelled solute in the presence of unlabelled inhibitor is indicative of a saturable efflux transport system.

[2] = system: [^3H]-ADMA transport across the blood-brain and blood-CSF barriers; assay: cross-inhibition, in situ perfusion: [^3H]-ADMA with 100 μM unlabelled L-arginine; format: in vivo, mouse; settings: for inhibition of [^3H]-ADMA uptake: 100 μM unlabelled L-arginine; for inhibition at 100 µM: Mus musculus
Method: as §1, §2, §3, §4, §5

[3] = pH 7.4
Method: (§6) The lipophilicity of the radiolabelled test molecules was also measured by means of an octanol:saline partition coefficient. […] Centrifugation separated the hydrophobic (octanol) phase and hydrophilic (saline) phase and 100 μL samples in triplicate were taken for radioactive liquid scintillation counting on a Tricarb 2900TR liquid scintillation counter (Perkin-Elmer; Boston, MA, USA). The partition coefficient was calculated as the ratio of radioactivity in the octanol phase to the radioactivity in the aqueous phase.

[4] = system: CAT1; settings: HEK293 overexpressing CAT1; read-out: IC50, inhibition of CAT1-mediated cellular uptake of ADMA; cited from earlier work
[5] = 500 μM; isolated incubated rat choroid plexus; cited from earlier work
[6] = capillary depletion analysis after in situ brain perfusion; format: in vivo, mouse; settings: 10-minute perfusion; for Kin: single-time point analysis, corrected for [^14C]-sucrose
Method: The microvasculature within a sample of brain tissue can be separated from the brain parenchyma using capillary depletion analysis. Following perfusion, the remaining brain tissue after microdissection of the regions described above (typically 200–300 mg) underwent capillary depletion following a method modified for mouse. […]

[7] = system: hCMEC/D3 cells; settings: [^3H]-arginine 7 nM; hCMEC/D3 accumulation; cited from earlier work
[8] = in situ brain/choroid plexus perfusion: CNS uptake of [^3H]-arginine, [^3H]-ADMA and [^14C]-sucrose (multiple-time and single-time uptake analysis); settings: for Kin: single-time point analysis, corrected for [^14C]-sucrose; for Kin / [^3H]-ADMA/ [^3H]-arginine, rate of uptake: 10-minute perfusion; for ability to cross the blood-brain and blood-CSF barriers: in situ perfusion; for Kp at 30 min, […] / Kp at […], […]: male, BALB/c, mouse
Method: All animals used in procedures were adult male BALB/c mice (between 23 g and 25 g) sourced from Harlan Laboratories, Oxon, UK, unless otherwise stated.
Animals were weighed immediately before the administration of the anaesthetic to ensure correct dosage. Domitor® (medetomidine hydrochloride) and Vetalar® (ketamine) were both purchased from Harlan Laboratories (Cambridge, UK). All animals were terminally anaesthetised (2 mg/kg Domitor® and 150 mg/kg Vetalar® injected intraperitoneally), and a lack of self-righting and paw-withdrawal reflexes (as surrogate indicators of consciousness) thoroughly checked prior to and during all procedures. If needed, additional anaesthetic was administered via the same route. […] At the end of the in situ brain perfusion procedure the animal was killed by decapitated under non-recovery anaesthesia. Animals were heparinised with 100 units heparin (in 0.9% m/v NaCl(aq), Harlan Laboratories; Oxon, UK), administered via the intraperitoneal route prior to surgery.
The in situ brain/choroid plexus perfusion method is designed to directly perfuse the brain with artificial plasma via a cannula placed in the heart. Artificial plasma is prepared to mimic the ionic composition of blood, and transporter inhibitors can be added in known concentrations and delivered to the brain for defined periods of time.
The left ventricle of the heart was cannulated with a 25G x 10 mm butterfly-winged needle connected to the perfusion circuit. […] The right atrium of the heart was sectioned to allow outflow of the artificial plasma. […] Radiolabelled and unlabelled test molecules were infused into the inflowing artificial plasma for periods up to 30 minutes.
At the set perfusion time a CSF sample was taken by inserting a pulled glass micropipette connected to silicon tubing and a syringe into the cisterna magna. Gentle suction was applied, and CSF was withdrawn. Only clear CSF samples were processed and taken for analysis. Samples contaminated with blood were discarded. The animal was then decapitated and the brain removed. Specific brain samples including the circumventricular organs (CVOs) were taken using a Leica S4E L2 stereomicroscope (Leica; Buckinghamshire, UK). The brain samples included the frontal cortex, caudate nucleus, occipital cortex, hippocampus, hypothalamus, thalamus, pons and cerebellum. The CVOs included the choroid plexus, pituitary gland and pineal gland.
All samples (brain regions, capillary depletion brain homogenate, pellet and supernatant, CVOs, CSF and plasma samples) were solubilised in 0.5 mL tissue solubiliser (Solvable; Perkin-Elmer; Boston, MA, USA). After incubating the samples at room temperature for 48 h, 4 mL scintillation fluid (Lumasafe®; Perkin-Elmer; Boston, MA, USA) was added to each before vigorous vortexing.

[9] = octanol:saline partition coefficient; settings: pH 7.4; for octanol-saline partition coefficient: mean ± SEM of 3 tubes
Method: as §6

[10] = 100μM unlabelled L-arginine, CSF, 10 minutes

Molecule: N=C(N)NCCC[C@H](N)C(=O)O [L-arginine]
inhibition of [^3H]-arginine uptake [1, 10]: 62.2%
inhibition of [^3H]-arginine uptake ([1]; 100μM unlabelled arginine, average of capillary depletion samples, 10 minutes): approximately 56%
inhibition of [^3H]-arginine uptake ([1]; 100μM unlabelled arginine, average of eight brain regions, 10-minute perfusion): approximately 67%
inhibition of [^3H]-arginine distribution ([1]; 100μM unlabelled arginine, choroid plexus, 10 minutes): 57.3%
inhibition of [^3H]-arginine distribution ([1]; 100μM unlabelled arginine, pineal gland, 10 minutes): 39.4%
inhibition of [^3H]-arginine distribution ([1]; 100μM unlabelled arginine, pituitary gland, 10 minutes): 48.1%
inhibition of [^3H]-ADMA uptake ([2]; CSF, pineal gland, choroid plexus and pituitary gland, 10 minutes): up to 78.6%
effect on [^3H]-ADMA distribution [2, 10]: no effect
inhibition of [^3H]-ADMA uptake ([2]; brain regions, 10 minutes): up to 80.4%
inhibition at 100 µM ([2]; read-out: inhibition of [^3H]-ADMA distribution): ≤ 80.8%
octanol-saline partition coefficient [3]: 0.00149±0.00016
IC50 [4]: 227 µM

Molecule: CNC(=N)NCCC[C@H](N)C(=O)O [N^G-methyl-L-arginine]
effect on [^3H]-arginine uptake [5]: can be inhibited

Molecule: N=C(N)NCCC[C@H](N)C(=O)O [[^3H]-arginine, reference compound]
Kin ([6]; Homogenate): 3.97 ± 0.67 µL/min/g
Kin ([6]; Pellet): 0.70 ± 0.10 µL/min/g
Kin ([6]; Supernatant): 2.35 ± 0.42 µL/min/g
ability to cross brain capillary endothelial cell membranes compared to [^3H]-ADMA (38 nM) [7]: more than -three to -five-fold
Kin ([8]; CSF): 1.08 ± 0.24 µL/min/g
Kin ([8]; Caudate nucleus): 5.40 ± 0.67 µL/min/g
Kin ([8]; Cerebellum): 5.10 ± 0.50 µL/min/g
Kin ([8]; Frontal Cortex): 5.84 ± 0.86 µL/min/g
Kin ([8]; Hippocampus): 4.72 ± 0.56 µL/min/g
Kin ([8]; Hypothalamus): 7.26 ± 1.76 µL/min/g
Kin ([8]; Occipital Cortex): 4.98 ± 0.72 µL/min/g
Kin ([8]; Pons): 5.58 ± 0.97 µL/min/g
Kin ([8]; Thalamus): 5.87 ± 1.07 µL/min/g
ability to cross the BBB in situ relative to [^3H]-ADMA ([8]; eight brain regions and capillary depletion samples): more than two-fold in most cases
ability to cross the blood-brain and blood-CSF barriers [8]: can cross the blood-brain barrier (BBB) and the blood-CSF barrier
Kp at 30 min, […] ([8]; CSF): 1.2 ± 0.251
Kp at […], […] ([8]; CSF): 0.0441 ± 0.0141
Kp at 30 min, […] ([8]; frontal cortex): 1.77 ± 0.316
Kp at […], […] ([8]; frontal cortex): 0.29 ± 0.0403
Kp at 30 min, […] ([8]; pons): ~1.85
Vi relative to [^14C]-sucrose space in the same experiment ([8]; multiple-time uptake analysis over 30 minutes, data not shown): up to 13 fold

Molecule: N=C(N)NCCC[C@H](N)C(=O)O [arginine]
inhibition at 100 µM ([2]; read-out: inhibition of [^3H]-ADMA (62.5 nM) transport): 64.3 to 80.8%

[^3H]-ADMA/ [^3H]-arginine, rate of uptake ([6]; Homogenate): 31.9%
Kin ([6]; Homogenate): 1.27 ± 0.56 µL/min/g
[^3H]-ADMA/ [^3H]-arginine, rate of uptake ([6]; Pellet): 11.4%
Kin ([6]; Pellet): 0.08 ± 0.20 µL/min/g
[^3H]-ADMA/ [^3H]-arginine, rate of uptake ([6]; Supernatant): 36.6%
Kin ([6]; Supernatant): 0.86 ± 0.16 µL/min/g
octanol-saline partition coefficient, single tube ([9]; Tube A, B or C): 0.00217 and 0.00237 and 0.00225
octanol-saline partition coefficient [9]: 0.00226±0.00006
octanol-saline partition coefficient ([9]; listed as 3H ADMA): 0.00226
[^3H]-ADMA/ [^3H]-arginine, rate of uptake ([8]; CSF): 249.5%
uptake into the CSF (CSF to plasma) ([8]; CSF, […], data uncorrected for [^14C]-sucrose): approximately 4%
Kin ([8]; CSF): 2.70 ± 0.90 µL/min/g
[^3H]-ADMA/ [^3H]-arginine, rate of uptake ([8]; Caudate nucleus): 44.6%
Kin ([8]; Caudate nucleus): 2.41 ± 0.29 µL/min/g
[^3H]-ADMA/ [^3H]-arginine, rate of uptake ([8]; Cerebellum): 31.7%
Kin ([8]; Cerebellum): 1.62 ± 0.19 µL/min/g
[^3H]-ADMA/ [^3H]-arginine, rate of uptake ([8]; Frontal Cortex): 42.7%
Kin ([8]; Frontal Cortex): 2.49 ± 0.35 µL/min/g
[^3H]-ADMA/ [^3H]-arginine, rate of uptake ([8]; Hippocampus): 46.1%
Kin ([8]; Hippocampus): 2.17 ± 0.17 µL/min/g
[^3H]-ADMA/ [^3H]-arginine, rate of uptake ([8]; Hypothalamus): 41.9%
Kin ([8]; Hypothalamus): 3.04 ± 0.30 µL/min/g
[^3H]-ADMA/ [^3H]-arginine, rate of uptake ([8]; Occipital Cortex): 45.2%
Kin ([8]; Occipital Cortex): 2.25 ± 0.16 µL/min/g
[^3H]-ADMA/ [^3H]-arginine, rate of uptake ([8]; Pons): 44.2%
Kin ([8]; Pons): 2.46 ± 0.34 µL/min/g
[^3H]-ADMA/ [^3H]-arginine, rate of uptake ([8]; Thalamus): 35.8%
Kin ([8]; Thalamus): 2.10 ± 0.17 µL/min/g
distribution into the choroid plexus (tissue to plasma) ([8]; 30 minutes): approximately 40%
distribution into the choroid plexus (tissue to plasma) ([8]; peak at 10 minutes): approximately 240%
distribution (RBRAIN, tissue to plasma) corrected for [^14C]-sucrose ([8]; frontal cortex, 20 minutes): 27.64±4.30%
distribution (RBRAIN, tissue to plasma) corrected for [^14C]-sucrose ([8]; frontal cortex, 30 minutes): 10.41±2.77%
distribution (RBRAIN, tissue to plasma) corrected for [^14C]-sucrose ([8]; frontal cortex, […]): 9.86±1.43%
CNS-to-blood efflux ([8]; multiple-time uptake studies, loss of linearity): significant CNS-to-blood efflux
Molecule: [^3H]-ADMA [reference compound]
ability to cross the blood-brain and blood-CSF barriers [8]: can cross the blood-brain barrier (BBB) and the blood-CSF barrier
